We go through 18 compounds from patent US9643953B2, “Substituted benzylpyrazoles” (Bayer Intellectual Property GmbH, priority 2011, dated 2017).

Read-outs that look alike come from different tables or passages of the source.

Assay [1] addresses T1, catalytic domain of human Bub1 (amino acids 704-1085) (Homo sapiens, UniProt O43683).
T1 construct: catalytic domain of human Bub1 (amino acids 704-1085); His6 (N); made in house; host or cells: Hi5 insect cells
Description: Bub1 kinase assay (TR-FRET). In kind it is biochemical. Conditions: ATP 10 μM, peptide substrate 1 μM, 60 min at 22° C. How it is done:
To this end, 100-fold concentrated compound solutions (in DMSO) were previously prepared by serial dilution (1:3.4) of 2 mM stocks in a clear low volume 384-well source microtiter plate (Greiner Bio-One, Frickenhausen, Germany), from which 50 nl of compounds were transferred into a black low volume test microtiter plate from the same supplier. […] The resulting mixture (5 μl final volume) was incubated at 22° C. during 60 min., and the reaction was stopped by the addition of 5 μl of an aqueous EDTA-solution (50 mM EDTA, in 100 mM HEPES pH 7.5 and 0.2% (w/v) bovine serum albumin) which also contained the TR-FRET detection reagents (0.2 μM streptavidin-XL665 [Cisbio Bioassays, Codolet, France] and 1 nM anti-phosho-Serine antibody [Merck Millipore, cat. #35-001] and 0.4 nM LANCE EU-W1024 labeled anti-mouse IgG antibody [Perkin-Elmer, product no. AD0077, alternatively a Terbium-cryptate-labeled anti-mouse IgG antibody from Cisbio Bioassays can be used]). The stopped reaction mixture was further incubated 1 h at 22° C. in order to allow the formation of complexes between peptides and detection reagents. Subsequently, the amount of product was evaluated by measurement of the resonance energy transfer from the Eu-chelate-antibody complex recognizing the Phosphoserine residue to the streptavidin-XL665 bound to the biotin moiety of the peptide. […] IC50 values were calculated by fitting the normalized inhibition data to a 4-parameter logistic equation (Minimum, Maximum, IC50, Hill; Y=Max+(Min−Max)/(1+(X/IC50)Hill)).
(TR-FRET usually uses a lanthanide donor and a delayed reading to cut background.)

The subject of the next assay is HeLa cell line. Put plainly: Proliferation assay (HeLa cell line).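 Note: crystal violet staining of cell number, absorbance read at 595 nm, compounds tested at 0.001–10 µM, zero-point plate taken as 0% and untreated cells as 100%, four-parameter fit.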 Conditions: Homo sapiens, HeLa, 96 h.
Another assay deals with Caco2 cell line. Description: Proliferation assay (Caco2 cell line). To be noted: Homo sapiens, Caco-2, 96 h, read-out: Biological Assay 2: Proliferation assay (Caco2 cell line) median IC50.
The next assay relates to H460 cell line. Description: Proliferation assay (H460 cell line). To be noted: Homo sapiens, NCI-H460, 96 h, read-out: Biological Assay 2: Proliferation assay (H460 cell line) median IC50.
The next assay relates to B16F10 cell line. Put plainly: Proliferation assay (B16F10 cell line). Conditions: Mus musculus, B16-F10, 96 h, read-out: Biological Assay 2: Proliferation assay (B16F10 cell line) median IC50.
In another assay the test system is HeLa-MaTu-ADR cell line. Description: Proliferation assay (HeLa-MaTu-ADR cell line). Conditions: 96 h, read-out: Biological Assay 2: Proliferation assay (HeLa-MaTu-ADR cell line) median IC50.
The next assay relates to DU145 cell line. Put plainly: Proliferation assay (DU145 cell line). To be noted: Homo sapiens, DU-145, 96 h, read-out: Biological Assay 2: Proliferation assay (DU145 cell line) median IC50.
[2] abbreviates: TR-FRET, read-out: Biological Assay 1: Bub1 kinase assay median IC50.
The mark [3] stands for this setting: read-out: Biological Assay 2: Proliferation assay (HeLa cell line) median IC50.
Setting [4] is: read-out: Biological Assay 2: Proliferation assay (HeLa cell line) median IC50, HeLa cells, 4 days incubation, crystal violet staining.
[5] abbreviates: Biological Assay 1: Bub1 kinase assay median IC50, TR-FRET.

T1 sequence (O43683 704-1085): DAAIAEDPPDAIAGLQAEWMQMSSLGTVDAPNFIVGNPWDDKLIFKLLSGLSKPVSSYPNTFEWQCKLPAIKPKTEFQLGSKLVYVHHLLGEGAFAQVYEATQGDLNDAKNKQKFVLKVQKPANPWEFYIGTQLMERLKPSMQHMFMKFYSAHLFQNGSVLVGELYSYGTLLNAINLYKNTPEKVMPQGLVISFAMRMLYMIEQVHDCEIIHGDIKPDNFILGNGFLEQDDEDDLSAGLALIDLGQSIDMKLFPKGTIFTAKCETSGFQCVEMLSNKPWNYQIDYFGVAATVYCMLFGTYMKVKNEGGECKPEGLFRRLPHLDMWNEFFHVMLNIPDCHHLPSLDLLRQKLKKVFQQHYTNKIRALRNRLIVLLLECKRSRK
Description for B16F10 cell line: (§1) Cultivated tumor cells (cells were ordered from ATCC, except HeLa-MaTu and HeLa-MaTu-ADR, which were ordered from EPO-GmbH, Berlin) were plated at a density of 1000 to 5000 cells/well, depending on the growth rate of the respective cell line, in a 96-well multititer plate in 200 μL of their respective growth medium supplemented 10% fetal calf serum. After 24 hours, the cells of one plate (zero-point plate) were stained with crystal violet (see below), while the medium of the other plates was replaced by fresh culture medium (200 μl), to which the test substances were added in various concentrations (0 μM, as well as in the range of 0.001-10 μM; the final concentration of the solvent dimethyl sulfoxide was 0.5%). The cells were incubated for 4 days in the presence of test substances. Cell proliferation was determined by staining the cells with crystal violet: the cells were fixed by adding 20 μl/measuring point of an 11% glutaric aldehyde solution for 15 minutes at room temperature. After three washing cycles of the fixed cells with water, the plates were dried at room temperature. The cells were stained by adding 100 μl/measuring point of a 0.1% crystal violet solution (pH 3.0). After three washing cycles of the stained cells with water, the plates were dried at room temperature. The dye was dissolved by adding 100 μl/measuring point of a 10% acetic acid solution. Absorption was determined by photometry at a wavelength of 595 nm. The change of cell number, in percent, was calculated by normalization of the measured values to the absorption values of the zero-point plate (=0%) and the absorption of the untreated (0 μm) cells (=100%). The IC50 values were determined by means of a 4 parameter fit.
Description for Caco2 cell line: as §1
Description for DU145 cell line: as §1
Description for H460 cell line: as §1
Description for HeLa cell line: as §1
Description for HeLa-MaTu-ADR cell line: as §1

With `COc1cnc(-c2nn(Cc3ccccc3F)c(C3CC3)c2C)nc1Nc1ccncc1` [Example 2-1-10, 2-[5-cyclopropyl-1-(2-fluorobenzyl)-4-methyl-1H-pyrazol-3-yl]-5-methoxy-N-(pyridin-4-yl)pyrimidin-4-amine], the IC50 was found to be 0.0365 µM in assay [1] (setting [2]) and 3.49 µM in the assay with HeLa cell line (setting [3]).
With `COc1cnc(-c2nn(Cc3c(Cl)cccc3Cl)c(OC)c2C)nc1Nc1ccncc1` [Example 2-1-11, 2-[1-(2,6-dichlorobenzyl)-5-methoxy-4-methyl-1H-pyrazol-3-yl]-5-methoxy-N-(pyridin-4-yl)pyrimidin-4-amine], the IC50 came out at 0.00786 µM in assay [1] (setting [2]) and 2.74 µM in the assay on HeLa cell line (setting [3]).
Take `CCOc1cc(F)c(Cn2nc(-c3ncc(OC)c(Nc4ccncc4)n3)c(C)c2C2CC2)c(F)c1` [Example 2-1-12, 2-[5-cyclopropyl-1-(4-ethoxy-2,6-difluorobenzyl)-4-methyl-1H-pyrazol-3-yl]-5-methoxy-N-(pyridin-4-yl)pyrimidin-4-amine]: the IC50 was found to be 2.13 µM with Caco2 cell line; 2.62 µM in the assay with H460 cell line; 0.00603 µM in assay [1] (setting [2]); 2.24 µM with B16F10 cell line; 3.08 µM with HeLa-MaTu-ADR cell line; 4.38 µM in the assay on HeLa cell line (setting [3]). For the same compound, the IC50 in the assay on DU145 cell line is 3.09 µM.
Turning to `CCOc1cc(F)c(Cn2nc(-c3ncc(O)c(Nc4ccncc4)n3)c(C)c2C2CC2)c(Sc2ccccc2)c1` [Example 2-2-2, 2-{5-cyclopropyl-1-[4-ethoxy-2-fluoro-6-(phenylsulfanyl)benzyl]-4-methyl-1H-pyrazol-3-yl}-4-(pyridin-4-ylamino)pyrimidin-5-ol], the results for the IC50 (in assay [1] (setting [2]); in the assay on HeLa cell line (setting [4])) were 0.0539 µM and 4.97 µM, respectively.
Take `CCOc1cc(F)c(Cn2nc(-c3ncc(OCCN(C)C)c(Nc4ccncc4)n3)c(C)c2C2CC2)c(F)c1` [Example 2-3-1, 2-[5-cyclopropyl-1-(4-ethoxy-2,6-difluorobenzyl)-4-methyl-1H-pyrazol-3-yl]-5-[2-(dimethylamino)ethoxy]-N-(pyridin-4-yl)pyrimidin-4-amine]: the IC50 in the assay with Caco2 cell line was 1.94 µM; with H460 cell line, 1.46 µM; in assay [1] (setting [5]), 0.00745 µM; with B16F10 cell line, 0.422 µM; with HeLa-MaTu-ADR cell line, 1.26 µM; in the assay with HeLa cell line (setting [3]), 3.45 µM. The IC50 with DU145 cell line was determined as 3.2 µM.
Consider `CCOc1cc(F)c(Cn2nc(-c3ncc(OCC4(CO)COC4)c(Nc4ccncc4)n3)c(C)c2C2CC2)c(F)c1` [Example 2-3-2, {3-[({2-[5-cyclopropyl-1-(4-ethoxy-2,6-difluorobenzyl)-4-methyl-1H-pyrazol-3-yl]-4-(pyridin-4-ylamino)pyrimidin-5-yl}oxy)methyl]oxetan-3-yl}methanol], for which the values for the IC50 (in assay [1] (setting [5]); with HeLa cell line (setting [3])) were 0.00523 µM and 6 µM, respectively.
Consider `CCOc1cc(F)c(Cn2nc(-c3ncc(OCCO)c(Nc4ccncc4)n3)c(C)c2C2CC2)c(F)c1` [Example 2-3-3, 2-({2-[5-cyclopropyl-1-(4-ethoxy-2,6-difluorobenzyl)-4-methyl-1H-pyrazol-3-yl]-4-(pyridin-4-ylamino)pyrimidin-5-yl}oxy)ethanol], for which the IC50 in assay [1] (setting [5]) came out at 0.00786 µM; in the assay on HeLa cell line (setting [3]), 3.59 µM.
For `CCOc1cc(F)c(Cn2nc(-c3ncc(OCCSC)c(Nc4ccncc4)n3)c(C)c2C2CC2)c(F)c1` [Example 2-3-4, 2-[5-cyclopropyl-1-(4-ethoxy-2,6-difluorobenzyl)-4-methyl-1H-pyrazol-3-yl]-5-[2-(methylsulfanyl)ethoxy]-N-(pyridin-4-yl)pyrimidin-4-amine], the IC50 turned out to be 0.0108 µM in assay [1] (setting [5]) and 5.57 µM in the assay with HeLa cell line (setting [3]).
The matching figures for `CCOc1cc(F)c(Cn2nc(-c3ncc(OCS(N)(=O)=O)c(Nc4ccncc4)n3)c(C)c2C2CC2)c(F)c1` [Example 2-3-5, 1-({2-[5-cyclopropyl-1-(4-ethoxy-2,6-difluorobenzyl)-4-methyl-1H-pyrazol-3-yl]-4-(pyridin-4-ylamino)pyrimidin-5-yl}oxy)methanesulfonamide]: 0.00555 µM and 3.2 µM.
As for `CCOc1cc(F)c(Cn2nc(-c3ncc(OCCCSC)c(Nc4ccncc4)n3)c(C)c2C2CC2)c(F)c1` [Example 2-3-8, 2-[5-cyclopropyl-1-(4-ethoxy-2,6-difluorobenzyl)-4-methyl-1H-pyrazol-3-yl]-5-[3-(methylsulfanyl)propoxy]-N-(pyridin-4-yl)pyrimidin-4-amine], the IC50 in assay [1] (setting [5]) was determined as 0.0137 µM; in the assay on HeLa cell line (setting [3]), 2.96 µM.
With `CCOc1cc(F)c(Cn2nc(-c3ncc(OCC4(CO)COC4)c(Nc4ccncc4)n3)c(C)c2C2CC2)c(Sc2ccccc2)c1` [Example 2-3-9, [3-({[2-{5-cyclopropyl-1-[4-ethoxy-2-fluoro-6-(phenylsulfanyl)benzyl]-4-methyl-1H-pyrazol-3-yl}-4-(pyridin-4-ylamino)pyrimidin-5-yl]oxy}methyl)oxetan-3-yl]-methanol], the IC50 in assay [1] (setting [2]) was determined as 0.249 µM; with HeLa cell line (setting [4]) it was 6.46 µM.
As for `COc1cnc(-c2cc(OC)n(Cc3ccccc3F)n2)nc1Nc1ccncc1C(N)=O` [Example 2-4-1, 4-({2-[1-(2-fluorobenzyl)-5-methoxy-1H-pyrazol-3-yl]-5-methoxypyrimidin-4-yl}amino)pyridine-3-carboxamide], the results for the IC50 (in assay [1] (setting [2]); with HeLa cell line (setting [3])) were 0.0415 µM and more than 10 µM, respectively.
In the case of `CCOc1cc(F)c(Cn2nc(-c3ncc(OC)c(Nc4ccncc4C(N)=O)n3)c(C)c2C2CC2)c(F)c1` [Example 2-4-2, 4-({2-[5-cyclopropyl-1-(4-ethoxy-2,6-difluorobenzyl)-4-methyl-1H-pyrazol-3-yl]-5-methoxypyrimidin-4-yl}amino)nicotinamide], the figures for the IC50 (in assay [1] (setting [5]); in the assay with HeLa cell line (setting [3])) were 0.0105 µM and 3.23 µM, respectively.
As to `CCOc1cc(F)c(Cn2nc(-c3nccc(Nc4ccncc4C(N)=O)n3)c(C)c2C2CC2)c(F)c1` [Example 2-4-3, 4-({2-[5-cyclopropyl-1-(4-ethoxy-2,6-difluorobenzyl)-4-methyl-1H-pyrazol-3-yl]pyrimidin-4-yl}amino)nicotinamide], the IC50 in assay [1] (setting [5]) stood at 0.00932 µM; in the assay with HeLa cell line (setting [3]), 4.46 µM.
The matching figures for `CCOc1cc(F)c(Cn2nc(-c3nccc(Nc4ccncc4C#N)n3)c(C)c2C2CC2)c(F)c1` [Example 2-6-6, 4-({2-[5-cyclopropyl-1-(4-ethoxy-2,6-difluorobenzyl)-4-methyl-1H-pyrazol-3-yl]pyrimidin-4-yl}amino)nicotinonitrile]: 0.00877 µM and more than 10 µM.
As to `CCOc1cc(F)c(Cn2nc(-c3ncc(OCCC[S+](C)[O-])c(Nc4ccncc4)n3)c(C)c2C2CC2)c(F)c1` (stereo not shown) [Example 2-8-4, 2-[5-cyclopropyl-1-(4-ethoxy-2,6-difluorobenzyl)-4-methyl-1H-pyrazol-3-yl]-5-[3-(methylsulfinyl)propoxy]-N-(pyridin-4-yl)pyrimidin-4-amine], the IC50 worked out at 0.0079 µM in assay [1] (setting [2]) and 4.31 µM with HeLa cell line (setting [4]).
As for `CCOc1cc(F)c(Cn2nc(-c3ncc(OCCS(C)(=O)=O)c(Nc4ccncc4)n3)c(C)c2C2CC2)c(F)c1` [Example 2-9-1, 2-[5-cyclopropyl-1-(4-ethoxy-2,6-difluorobenzyl)-4-methyl-1H-pyrazol-3-yl]-5-[2-(methylsulfonyl)ethoxy]-N-(pyridin-4-yl)pyrimidin-4-amine], the IC50 in assay [1] (setting [5]) was determined as 0.00787 µM; in the assay with HeLa cell line (setting [3]), 5.17 µM.
Consider `COc1cnc(-c2nn(Cc3c(F)c(F)c(OCC(F)(F)F)c(F)c3F)c(C3CC3)c2C)nc1Nc1ccncc1` [Example 2-10-2, 2-{5-cyclopropyl-4-methyl-1-[2,3,5,6-tetrafluoro-4-(2,2,2-trifluoroethoxy)benzyl]-1H-pyrazol-3-yl}-5-methoxy-N-(pyridin-4-yl)pyrimidin-4-amine], for which the figures for the IC50 (in assay [1] (setting [2]); in the assay on HeLa cell line (setting [3])) were 0.0613 µM and 5.28 µM, respectively.
